Experiments:
[1] = Solubility in water and organic solvents
[2] = Gelation by inversion test; conditions: for minimum gel concentration (MGC): inversion test
[3] = hydrogel of similar PA; cited from earlier work
Text: This is consistent with previous findings that increasing the proportion of valines in the β-sheet forming region of a PA results in an increase in gel stiffness. With PAs such as […]16, the β-sheet signal in the CD spectrum is red-shifted by a magnitude that inversely correlates with gel stiffness, and this has been attributed to the extent of twisting of the sheets, i.e., stiffer gels involve stronger peptide interactions with the least t ...

[4] = Rheology of the gels (strain sweep, frequency sweep, thixotropic test); assay type: physicochemical
Experimental: […]-C8 therefore forms a very stiff but brittle gel.
An aliquot (550 μL) of this solution was then cast onto an Anton Paar MCR 302 rheometer (parallel plate geometry, 25 mm diameter, 1 mm gap) and left to gel over the course of 4 h. A solvent trap and Peltier hood was used to prevent any evaporation during gelation. Frequency sweeps were performed from 0.1–10 Hz, at a constant strain of 0.2% and three repeats performed on separate samples. Strain sweeps were performed from 0.1–100% at a constant frequency of 1 Hz.

N- Val3-His-Gly-Val3
solubility in acetonitrile/water mixtures ([1]; mixtures of acetonitrile and water, VVVGHVVV-C8 with sonication): soluble
solubility in water ([1]; water, regardless of pH, temperature and sonication): peculiarly soluble in water
gelation of acetonitrile/water solutions ([2]; acetonitrile/water mixtures): did not gelate

EEEAAAVVV-C16 [previously reported hydrogel-forming peptide amphiphile studied by the Stupp and Nguyen groups]
gel stiffness [3]: < 10^4 Pa

N-Octanoic acid-Val3-His-Gly-Val3
gel stiffness (approximated by G') ([4]; 0.20 wt.% gel in 50% acetonitrile/water, frequency sweep 0.1-10 Hz at constant 0.2% strain, three repeats on separate samples): 1.5 × 10^5 Pa
cross-over point under oscillatory strain ([4]; DMF organogel): no cross-over point observed
strain at which mechanical properties deviate from the linear viscoelastic region ([4]; gel from 0.20 wt.% solution in 50% acetonitrile/water, strain sweep 0.1-100% at constant frequency of 1 Hz): less than 1 % strain
cross-over point from gel to liquid (G' = G'') ([4]; gel from 0.20 wt.% solution in 50% acetonitrile/water, strain sweep at constant frequency of 1 Hz): 3 % strain
solubility in DMF ([1]; DMF): dissolved
solubility in acetonitrile ([1]; acetonitrile): insoluble
solubility in dichloromethane ([1]; dichloromethane): dissolved
solubility in dimethyl sulfoxide ([1]; dimethyl sulfoxide): dissolved
solubility in ethyl acetate ([1]; ethyl acetate, heating to reflux temperatures and sonicating for up to one hour): did not dissolve
minimum gel concentration (MGC) ([2]; DMF): 0.06 wt.%
minimum gel concentration (MGC) ([2]; acetone): 0.06 wt.%
gel formation in chloroform ([2]; chloroform solution): did not form gels
gel formation in dichloromethane ([2]; dichloromethane solution): did not form gels
gel formation in dimethyl sulfoxide ([2]; dimethyl sulfoxide solution): did not form gels
gel formation in ethanol ([2]; ethanol solution): did not form gels
gel formation in isopropanol ([2]; isopropanol solution): did not form gels
gel formation in methanol ([2]; methanol solution): did not form gels
gel formation in toluene ([2]; toluene solution): did not form gels
